In patent US20240217951A1, “PCSK9 INHIBITORS AND METHODS OF USE THEREOF” (AstraZeneca AB, priority 2022, published 2024):

Columns and labels:
[1] = target: T1, potassium ion channel hERG (human Ether-á-go-go-Related Gene) (Homo sapiens, UniProt Q12809); assay: Assay 5 - hERG assay (SyncroPatch 384PE patch clamp, CHO cells); type: cell-based; settings: geometric mean; CHO cells over-expressing hERG; read-out: Assay 5 (hERG Hu CHO IF EPh CR-Syncro) GMean IC50
T1 construct: expressed in transfected cells; host or cells: Chinese hamster ovary K1 (CHO)
T1 sequence (Q12809 whole entry): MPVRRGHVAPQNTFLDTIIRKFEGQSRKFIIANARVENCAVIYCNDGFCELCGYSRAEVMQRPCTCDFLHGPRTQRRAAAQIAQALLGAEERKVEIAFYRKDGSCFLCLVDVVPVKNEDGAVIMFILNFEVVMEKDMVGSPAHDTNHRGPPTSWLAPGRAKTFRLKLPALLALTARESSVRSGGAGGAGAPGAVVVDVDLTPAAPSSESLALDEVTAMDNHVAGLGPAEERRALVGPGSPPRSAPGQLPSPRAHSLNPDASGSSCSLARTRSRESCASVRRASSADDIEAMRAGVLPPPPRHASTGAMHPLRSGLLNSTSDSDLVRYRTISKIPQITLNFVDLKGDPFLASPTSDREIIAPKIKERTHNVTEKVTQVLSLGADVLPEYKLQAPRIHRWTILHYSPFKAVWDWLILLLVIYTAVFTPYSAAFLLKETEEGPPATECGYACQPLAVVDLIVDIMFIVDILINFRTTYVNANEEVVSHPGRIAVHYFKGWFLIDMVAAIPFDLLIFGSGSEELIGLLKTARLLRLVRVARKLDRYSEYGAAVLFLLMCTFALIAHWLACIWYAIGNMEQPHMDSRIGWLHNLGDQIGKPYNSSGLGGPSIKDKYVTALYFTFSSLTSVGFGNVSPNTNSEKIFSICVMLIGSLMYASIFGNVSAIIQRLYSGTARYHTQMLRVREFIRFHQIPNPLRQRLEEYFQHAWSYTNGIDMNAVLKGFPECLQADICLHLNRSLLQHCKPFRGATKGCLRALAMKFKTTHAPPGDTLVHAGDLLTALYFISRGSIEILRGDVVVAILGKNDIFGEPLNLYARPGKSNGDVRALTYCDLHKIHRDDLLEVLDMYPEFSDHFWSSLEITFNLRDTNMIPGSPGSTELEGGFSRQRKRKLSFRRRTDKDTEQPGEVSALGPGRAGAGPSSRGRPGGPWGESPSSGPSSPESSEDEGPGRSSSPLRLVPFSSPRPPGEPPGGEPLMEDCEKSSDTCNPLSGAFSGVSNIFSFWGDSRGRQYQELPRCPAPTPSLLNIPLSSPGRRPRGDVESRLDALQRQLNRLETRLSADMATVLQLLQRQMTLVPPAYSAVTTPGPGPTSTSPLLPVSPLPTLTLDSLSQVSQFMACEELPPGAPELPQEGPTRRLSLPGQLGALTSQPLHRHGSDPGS
Summary of the method: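 Automated high-throughput patch clamp on CHO-K1 cells overexpressing hERG at room temperature, KF/KCl internal with escin, NMDG-containing external at pH 7.4. Six-point cumulative compound addition, 0.33% DMSO final; wells kept only with seal >30 MΩ, Z′ >0.4 and current >0.2 nA.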

[2] = target: T2, PCSK9 (Homo sapiens, UniProt Q8NBP7, G670E/V474I); assay: biochemical
T2 sequence (Q8NBP7 with tags, fused parts or gaps V474I/G670E): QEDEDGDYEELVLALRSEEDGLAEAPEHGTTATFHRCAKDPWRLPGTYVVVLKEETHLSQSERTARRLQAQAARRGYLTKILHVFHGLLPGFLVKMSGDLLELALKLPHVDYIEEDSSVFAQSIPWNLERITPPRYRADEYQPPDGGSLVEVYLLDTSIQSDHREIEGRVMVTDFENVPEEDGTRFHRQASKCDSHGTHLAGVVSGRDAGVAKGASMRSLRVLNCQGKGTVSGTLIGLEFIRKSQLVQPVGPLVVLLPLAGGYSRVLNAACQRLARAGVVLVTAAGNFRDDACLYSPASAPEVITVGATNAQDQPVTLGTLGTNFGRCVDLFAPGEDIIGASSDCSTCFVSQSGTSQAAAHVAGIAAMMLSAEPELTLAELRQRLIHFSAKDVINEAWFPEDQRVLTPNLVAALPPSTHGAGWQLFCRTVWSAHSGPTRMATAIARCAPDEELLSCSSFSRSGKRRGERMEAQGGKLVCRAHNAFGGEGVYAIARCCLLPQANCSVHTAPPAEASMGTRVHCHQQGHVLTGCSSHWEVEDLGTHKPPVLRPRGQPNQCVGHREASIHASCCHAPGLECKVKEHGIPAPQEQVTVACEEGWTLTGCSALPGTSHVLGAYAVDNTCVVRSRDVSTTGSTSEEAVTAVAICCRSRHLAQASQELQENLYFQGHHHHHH

[3] = target: T2, PCSK9; assay: Assay 3 - PCSK9 LDL-C uptake assay in HepG2 cells; type: cell-based; set-up: TEV cleavage site (C); His6 (C); host or cells: added to HepG2 cells (ATCC #HB-8065); settings: 125 nM PCSK9, pHrodo Red-LDL, read-out: Assay 3 LDL uptake potency
Summary of the method: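 HepG2 cells seeded 24 h, then given compound (half-log series, top 10 μM) plus PCSK9 at 125 nM final for 24 h at 37 °C. pHrodo Red-LDL (6 μg/mL) added; uptake imaged at 4 h and 24 h. Signal normalized between DMSO and 100 nM evolocumab controls, four-parameter logistic fit.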

Cc1cnc(N[C@H]2CC[C@H](Nc3ccc(-n4cccc(C#N)c4=O)cn3)C2)cn1 [Example 103, 6′-(((1S,3S)-3-((5-Methylpyrazin-2-yl)amino)cyclopentyl)amino)-2-oxo-2H-[1,3′-bipyridine]-3-carbonitrile]
IC50 [1]: > 40100 nM | IC50 [2]: 5.7 nM | EC50 [3]: 200 nM

COc1cccn(-c2ccc(N[C@H]3CC[C@H](Nc4cnc(C)cn4)C3)nc2)c1=O [Example 36, 3-Methoxy-6′-(((1S,3S)-3-((5-methylpyrazin-2-yl)amino)cyclopentyl)amino)-2H-[1,3′-bipyridin]-2-one]
IC50 [1]: > 40000 nM | IC50 [2]: 4.1 nM | EC50 [3]: 100 nM

COc1cccn(-c2ccc(N[C@H]3CC[C@H](Nc4cnc(OC(F)F)cn4)C3)nc2)c1=O [Example 94, 6′-(((1S,3S)-3-((5-(Difluoromethoxy)pyrazin-2-yl)amino)cyclopentyl)amino)-3-methoxy-2H-[1,3′-bipyridin]-2-one]
IC50 [1]: 17500 nM | IC50 [2]: 7.7 nM | EC50 [3]: 300 nM

COc1cccn(-c2ccc(N[C@H]3CC[C@H](Nc4cnc(C5CC5)cn4)C3)nc2)c1=O [Example 106, 6′-(((1S,3S)-3-((5-Cyclopropylpyrazin-2-yl)amino)cyclopentyl)amino)-3-methoxy-2H-[1,3′-bipyridin]-2-one]
IC50 [1]: > 40000 nM | IC50 [2]: 4.5 nM | EC50 [3]: 200 nM

COc1ccnn(-c2ccc(N[C@H]3CC[C@H](Nc4cnc(C)cn4)C3)nc2)c1=O [Example 226, 4-Methoxy-2-(6-(((1S,3S)-3-((5-methylpyrazin-2-yl)amino)cyclopentyl)amino)pyridin-3-yl)pyridazin-3 (2H)-one]
IC50 [1]: > 40100 nM | IC50 [2]: 4 nM | EC50 [3]: 200 nM

Cc1cnc(N[C@H]2CC[C@H](Nc3ccc(-n4c(=O)n(C)c5ccccc54)cn3)C2)cn1 [Example 45, 1-Methyl-3-(6-(((1S,3S)-3-((5-methylpyrazin-2-yl)amino)cyclopentyl)amino)pyridin-3-yl)-1,3-dihydro-2H-benzo[d]imidazol-2-one]
IC50 [1]: 23100 nM | IC50 [2]: 1.5 nM | EC50 [3]: 200 nM

Cc1cccn(-c2ccc(N[C@H]3CC[C@H](Nc4cnc(Cl)cn4)C3)nc2)c1=O [Example 24, 6′-(((1S,3S)-3-((5-Chloropyrazin-2-yl)amino)cyclopentyl)amino)-3-methyl-2H-[1,3′-bipyridin]-2-one]
IC50 [1]: 20500 nM | IC50 [2]: 4.3 nM | EC50 [3]: 400 nM

O=c1ccc(-c2ccc(F)cc2)cn1-c1ccc(N[C@H]2CC[C@H](Nc3cnc(Cl)cn3)C2)nc1 [Example 32, 6′-(((1S,3S)-3-((5-Chloropyrazin-2-yl)amino)cyclopentyl)amino)-5-(4-fluorophenyl)-2H-[1,3′-bipyridin]-2-one]
IC50 [1]: 3500 nM | IC50 [2]: 7.9 nM | EC50 [3]: 200 nM

O=c1ccc2ccccc2n1-c1ccc(N[C@H]2CC[C@H](Nc3cnc(Cl)cn3)C2)nc1 [Example 35, 1-(6-(((1S,3S)-3-((5-Chloropyrazin-2-yl)amino)cyclopentyl)amino)pyridin-3-yl)quinolin-2 (1H)-one]
IC50 [1]: 4700 nM | IC50 [2]: 2 nM | EC50 [3]: 100 nM

Cc1cnc(N[C@H]2CC[C@H](Nc3ccc(-n4c(=O)[nH]c5ccccc54)cn3)C2)cn1 [Example 46, 1-(6-(((1S,3S)-3-((5-Methylpyrazin-2-yl)amino)cyclopentyl)amino)pyridin-3-yl)-1,3-dihydro-2H-benzo[d]imidazol-2-one]
IC50 [1]: 33000 nM | IC50 [2]: 3 nM | EC50 [3]: 700 nM

Cc1cnc(N[C@H]2CC[C@H](Nc3ccc(-n4cccc(C)c4=O)cn3)C2)cn1 [Example 44, 3-Methyl-6′-(((1S,3S)-3-((5-methylpyrazin-2-yl)amino)cyclopentyl)amino)-2H-[1,3′-bipyridin]-2-one]
IC50 [1]: > 40000 nM | IC50 [2]: 5.5 nM | EC50 [3]: 300 nM

Cc1cnc(N[C@H]2CC[C@H](Nc3ccc(-n4cccc(Cl)c4=O)cn3)C2)cn1 [Example 47, 3-Chloro-6′-(((1S,3S)-3-((5-methylpyrazin-2-yl)amino)cyclopentyl)amino)-2H-[1,3′-bipyridin]-2-one]
IC50 [1]: > 40000 nM | IC50 [2]: 2.1 nM | EC50 [3]: 100 nM

O=C(O)c1ccc(=O)n(-c2ccc(N[C@H]3CC[C@H](Nc4cnc(Cl)cn4)C3)nc2)c1 [Example 33, 6′-(((1S,3S)-3-((5-Chloropyrazin-2-yl)amino)cyclopentyl)amino)-2-oxo-2H-[1,3′-bipyridine]-5-carboxylic acid]
IC50 [1]: > 40000 nM | IC50 [2]: 12 nM | EC50 [3]: 100 nM

Cc1cnc(N[C@H]2CC[C@H](Nc3ccc(-n4c(=O)n(C)c5cccnc54)cn3)C2)cn1 [Example 42, 1-Methyl-3-(6-(((1S,3S)-3-((5-methylpyrazin-2-yl)amino)cyclopentyl)amino)pyridin-3-yl)-1,3-dihydro-2H-imidazo[4,5-b]pyridin-2-one]
IC50 [1]: > 40000 nM | IC50 [2]: 5.8 nM | EC50 [3]: 200 nM

Cn1c(=O)n(-c2ccc(N[C@H]3CC[C@H](Nc4cnc(OC(F)F)cn4)C3)nc2)c2ccccc21 [Example 82, 1-(6-(((1S,3S)-3-((5-(Difluoromethoxy)pyrazin-2-yl)amino)cyclopentyl)amino)pyridin-3-yl)-3-methyl-1,3-dihydro-2H-benzo[d]imidazol-2-one]
IC50 [1]: 5500 nM | IC50 [2]: 2.5 nM | EC50 [3]: 200 nM

Cc1cnc(N[C@H]2CC[C@H](Nc3ccc(-n4c(=O)ccc5cccnc54)cn3)C2)cn1 [Example 37, 1-(6-(((1S,3S)-3-((5-Methylpyrazin-2-yl)amino)cyclopentyl)amino)pyridin-3-yl)-1,8-naphthyridin-2(1 H)-one]
IC50 [1]: > 40000 nM | IC50 [2]: 6.5 nM | EC50 [3]: 200 nM

Cn1c(=O)n(-c2ccc(N[C@H]3CC[C@H](Nc4cnc(Cl)cn4)C3)nc2)c2ccccc21 [Example 27, 1-(6-(((1S,3S)-3-((5-Chloropyrazin-2-yl)amino)cyclopentyl)amino)pyridin-3-yl)-3-methyl-1,3-dihydro-2H-benzo[d]imidazol-2-one]
IC50 [1]: 6350 nM | IC50 [2]: 1.7 nM | EC50 [3]: 100 nM
